Like-named read-outs stand apart in the source and are kept apart here.
Legend:
[1] = Fate of intravenously administered [2-^14C] thymidine in rats; type: in vivo; conditions: intravenous
Method: Extensive studies by the present inventors led to the discovery that when “thymidine” is intravenously administered to rats, the thymidine administered is utilized only in the S phase of the cell cycle, and more precisely, within 3 minutes after the administration of the thymidine. This observation is based on the findings obtained using a “thymidine” with the “2” carbon position within its structure labeled with ^14C and tracking the fate of the administered thymidine. It was discovered that thymidine not incorporated during the cell division is rapidly metabolized in the liver, leucocytes, and the like and mostly excreted out of the body as carbon dioxide gas. Based on these findings, the present inventors discovered that a thymidine with “2” carbon position labeled with ^14C is an extremely important marker for specifying the frequency of dividing cells in vivo and for localizing its site(s) within the body. It was also discovered that a (1,3-N) thymidine, obtained by attaching a fluorescent compound to the nitrogen atoms at 1,3-positions of the thymidine, can also be used as the labeled thymidine.

[2] = system: excised jejunum, basal layer of the intestinal tract mucosa; test: [2-^14C] thymidine incorporation in excised, cultured jejunum (in vitro system); type: cell-based, Wistar rat; conditions: 5 μCi injected into excised jejunum, cultured 10 minutes at 37° C.
Method: Next, the jejunum of a healthy Wistar male rat at seven weeks of age was used. The part of the abdomen was opened under ethyl ether anesthesia, and the jejunum of about 2-4 cm in length was excised. […] Then, the specimen was immediately frozen in liquid nitrogen and sectioned using a microtome to obtain frozen sections. Semi-microautoradiographs were prepared from these sections.

[3] = system: jejunum, basal layer of the intestinal mucosa; test: [2-^14C] thymidine injected into exposed jejunum, semi-microautoradiograph; type: in vivo, Wistar rat; conditions: 5 μCi injected into exposed jejunum, 5 minutes
Method: The specimen used was the jejunum from a healthy 7-week old Wistar rat, male. Under ethyl ether anesthesia, the abdomen was opened to expose the jejunum, which was marked with methylene blue. […] Frozen sections were prepared with a microtome, and a semi-microautoradiographs were obtained.

[4] = BALB/c, mouse, in vivo
Method: The back of BALB/c nude mice was inoculated with a 10^7 Hu09 cells (human osteosarcoma) grown in culture. 3 weeks later, animals with granulation tissue with a collagen layer were submitted for the experiment. […] 50 μm thick whole body sections cut longitudinally were prepared using a Leica Macrocut. The sections were stored in a sealed container and lyophilized. The dried sections in contact with a Fuji imaging plate were exposed in a dark box, and the IP was then processed with the Fuji BAS2000 analyzer to generate a digital image (FIG. 1).
The specimen was then placed in contact with IP, and 16 hours later the data was converted into a computer image for analysis.

[5] = system: digestive tract mucosa (m)
Method: (§1) ^90YCl at the three levels, 0.5 μCi (18.5 kBq), 2 μCi (74 kBq) or 10 μCi (370 kBq), was injected intravenously into the tail of male BALB/c mice in groups of 6 mice per group (a total of 18 mice). […] The animals were sacrificed one hour later under ether anesthesia, and the macroautoradiographs were prepared as described in Example 1. […] FIG. 12 is a microautoradiograph of the bone marrow, showing the bone marrow from a mouse sacrificed 1 hour after [2-^14C] was administered, which was 48 hours after the ^90Y administration.
(§2) On the sections were placed five sheets of 10 μm thick aluminum foil, and this was brought into contact with IP to generate only the ^90Y image. […] If the image of the two radiation nuclides is to be obtained simultaneously, one can place an industrial X-ray film in contact with said section, followed by five sheets of aluminum foil, and then the IP; these are then stored in a dark box. After about 7 days, the X-ray film is taken out and photographically processed by the usual method to produce the image, while the IP is processed by Fuji BAS2000 for computer processing of the images. This method provides ^14C image on the industrial X-ray film. This method also gives a ^90Y image on the IP.

bone marrow (B) = conditions: for effect of ^90Y radiation on [2-^14C] thymidine incorporation (suppression of mitosis), B: bone marrow
Method: as §1, §2

tumor (T) = test: Effect of ^90Y radiation on mitosis, [2-^14C] thymidine incorporation as marker of DNA replication (macroautoradiography): tumor; type: in vivo, BALB/c mice; note: key: −: no effect; ±: Slight inhibition; +: Decrease in function; ++: Definite decrease in function; +++: No incorporation of ^14C marker in DNA replication
[6] = Method: After administration of the aforementioned ^90Y into the mouse tail vein the systemic distribution was studied by the following experiments. The animals used were those obtained from the source as used for the BALB/c (body weight 25 g) described in Examples 1 and 2 above. After administration of an aqueous 0.5 μCi (18.5 kBq) ^90YCl citrate solution per male mouse in the tail vein, analysis was conducted over time at 5 time points: at 10 minutes, 1, 6, 24, and 48 hours. The animals were sacrificed under an ether anesthesia, and the whole body autoradiographs were prepared using with the same procedure as that used in Example 1 and Example 2 (FIGS. 7, 8, 9, 10, 11).
[7] = 0.5 μCi ^90Y i.v., 1 hr after ^90Y
[8] = 0.5 μCi ^90Y i.v., 6 hr after ^90Y
[9] = 0.5 μCi ^90Y i.v., 24 hr after ^90Y
[10] = 0.5 μCi ^90Y i.v., 48 hr after ^90Y
[11] = 0.5 μCi ^90Y i.v., 72 hr after ^90Y
[12] = 0.5 μCi ^90Y i.v., 168 hr after ^90Y
[13] = 2 μCi ^90Y i.v., 1 hr after ^90Y
[14] = 2 μCi ^90Y i.v., 6 hr after ^90Y
[15] = 2 μCi ^90Y i.v., 24 hr after ^90Y
[16] = 2 μCi ^90Y i.v., 48 hr after ^90Y
[17] = 2 μCi ^90Y i.v., 72 hr after ^90Y
[18] = 2 μCi ^90Y i.v., 168 hr after ^90Y
[19] = 10 μCi ^90Y i.v., 1 hr after ^90Y
[20] = 10 μCi ^90Y i.v., 6 hr after ^90Y
[21] = 10 μCi ^90Y i.v., 24 hr after ^90Y
[22] = 10 μCi ^90Y i.v., 48 hr after ^90Y
[23] = 10 μCi ^90Y i.v., 72 hr after ^90Y
[24] = 10 μCi ^90Y i.v., 168 hr after ^90Y

In the case of `Cc1cn([C@H]2C[C@H](O)[C@@H](CO)O2)c(=O)[nH]c1=O` [[2-^14C] thymidine], the “time after administration within which thymidine is utilized (S phase)” value [1] is reported as at most 3 min, the “incorporation in the basal layer of the intestinal tract mucosa (semi-microautoradiograph)” value [2] is reported as “substantially darkened images” and the “incorporation in the basal layer of the intestinal mucosa (semi-microautoradiograph)” value [3] is reported as “darkened images were clearly recorded”. The “time to incorporation into DNA after injection” value [4] was “less than 3 minutes” and the “time by which the ^14C component is completely excreted out of other areas, except the bone and bone marrow” value ([4]; iv) was at most 1 h.

For `[Cl][90Y]([Cl])[Cl]` [^90Y, ^90YCl3], the “effect of ^90Y radiation on [2-^14C] thymidine incorporation (suppression of mitosis), m” value (“effect … (suppression of mitosis), m” for short) [5, 7] was “−”, the “effect … (suppression of mitosis), m” value [5, 8] was “−” and the “effect … (suppression of mitosis), m” value [5, 9] was “−”. For the same compound, the “effect … (suppression of mitosis), m” value [5, 10] was “−”, the “effect … (suppression of mitosis), m” value [5, 11] was “−” and the “effect … (suppression of mitosis), m” value [5, 12] was “−”. The “effect … (suppression of mitosis), m” value [5, 13] was “−”, the “effect … (suppression of mitosis), m” value [5, 14] was “−” and the “effect … (suppression of mitosis), m” value [5, 15] was “−”. For the same compound, the “effect … (suppression of mitosis), m” value [5, 16] was “−”, the “effect … (suppression of mitosis), m” value [5, 17] was “−” and the “effect … (suppression of mitosis), m” value [5, 18] was “−”. For the same compound, the “effect … (suppression of mitosis), m” value [5, 19] was “−”, the “effect … (suppression of mitosis), m” value [5, 20] was “−” and the “effect … (suppression of mitosis), m” value [5, 21] was “−”. The “effect … (suppression of mitosis), m” value [5, 22] was “−”, the “effect … (suppression of mitosis), m” value [5, 23] was “−” and the “effect … (suppression of mitosis), m” value [5, 24] was “−”. The “effect of ^90Y radiation on [2-^14C] thymidine incorporation (suppression of mitosis), B” value (from here on “effect of ^90Y radiation … B”) (bone marrow (B); [7]) was “−”, the “effect of ^90Y radiation … B” value (bone marrow (B); [8]) was “−” and the “effect of ^90Y radiation … B” value (bone marrow (B); [9]) was “−”. The “effect of ^90Y radiation … B” value (bone marrow (B); [10]) was “+”, the “effect of ^90Y radiation … B” value (bone marrow (B); [11]) was “+” and the “effect of ^90Y radiation … B” value (bone marrow (B); [12]) was “±”. For the same compound, the “effect of ^90Y radiation … B” value (bone marrow (B); [13]) was “−”, the “effect of ^90Y radiation … B” value (bone marrow (B); [14]) was “+” and the “effect of ^90Y radiation … B” value (bone marrow (B); [15]) was “++”. The “effect of ^90Y radiation … B” value (bone marrow (B); [16]) was “++”, the “effect of ^90Y radiation … B” value (bone marrow (B); [17]) was “++” and the “effect of ^90Y radiation … B” value (bone marrow (B); [18]) was “+”. The “effect of ^90Y radiation … B” value (bone marrow (B); [19]) was “±”, the “effect of ^90Y radiation … B” value (bone marrow (B); [20]) was “++” and the “effect of ^90Y radiation … B” value (bone marrow (B); [21]) was “+++”. The “effect of ^90Y radiation … B” value (bone marrow (B); [22]) was “+++”, the “effect of ^90Y radiation … B” value (bone marrow (B); [23]) was “+++” and the “effect of ^90Y radiation … B” value (bone marrow (B); [24]) was “+++”. The “level that showed cytotoxic effects near the sites of ^90Y deposition” value (bone marrow (B); bone / bone marrow) was “about 5 μCi/25 g”, the “activity of the lymphocytes in the bone marrow to degrade [2-^14C] thymidine” value (bone marrow (B); first group, 0.5 μCi administration) was “only a slight decrease” and the “effect of ^90Y radiation on [2-^14C] thymidine incorporation (suppression of mitosis), T” value (from here on “effect … (suppression of mitosis), T”) (tumor (T); [7]) was “−”. The “effect … (suppression of mitosis), T” value (tumor (T); [8]) was “−”, the “effect … (suppression of mitosis), T” value (tumor (T); [9]) was “−” and the “effect … (suppression of mitosis), T” value (tumor (T); [10]) was “+”. The “effect … (suppression of mitosis), T” value (tumor (T); [11]) was “+”, the “effect … (suppression of mitosis), T” value (tumor (T); [12]) was “±” and the “effect … (suppression of mitosis), T” value (tumor (T); [13]) was “−”. For the same compound, the “effect … (suppression of mitosis), T” value (tumor (T); [14]) was “+”, the “effect … (suppression of mitosis), T” value (tumor (T); [15]) was “++” and the “effect … (suppression of mitosis), T” value (tumor (T); [16]) was “++”. The “effect … (suppression of mitosis), T” value (tumor (T); [17]) was “++”, the “effect … (suppression of mitosis), T” value (tumor (T); [18]) was “+” and the “effect … (suppression of mitosis), T” value (tumor (T); [19]) was “±”. The “effect … (suppression of mitosis), T” value (tumor (T); [20]) was “++”, the “effect … (suppression of mitosis), T” value (tumor (T); [21]) was “+++” and the “effect … (suppression of mitosis), T” value (tumor (T); [22]) was “+++”. The “effect … (suppression of mitosis), T” value (tumor (T); [23]) was “+++”, the “effect … (suppression of mitosis), T” value (tumor (T); [24]) was “+++” and the “accumulation in the skeletal bones, share of the total dose” value ([6]; 0.5 μCi ^90YCl citrate solution, tail vein, IP images at 10 minutes to 48 hours) was at least 70%. For the same compound, the “^90Y remaining in the liver, spleen, and kidney” value ([6]; 0.5 μCi, tail vein, 24 hours after administration) was “only a slight residue”, the “localization in skin, digestive tract epithelium, and vascular endothelial cells” value ([6]; 0.5 μCi, tail vein, image analysis) was “did not localize” and the “^90Y image at the site of the osteosarcoma HU09” value ([6]; whole body autoradiograph, compared with bones) was “blackened image completely equivalent to the extent seen in the bones”.

Source: patent US20040028609A1, “Two-dimensionally quantified image method for distinguishing and quantifying over-growing tissue or the like” (priority 2000, published 2004)
